Results as given in ChEMBL document CHEMBL5303304, “EUbOPEN Chemogenomics Library - IncuCyte” (2023).

Experiments:
Format in all cases: toxicity, cell-based
HEK-293T = assay: Incucyte cell viability with HEK293T; details: human, 10 µM, compound concentration 10 uM
Fibroblast = assay: Incucyte cell viability with human fibroblast; details: 10 µM, compound concentration 10 uM
U2OS = assay: Incucyte cell viability with U2OS; details: human, 10 µM, compound concentration 10 uM
Note: unitless GR value; below 1 slowed growth and below 0 cell loss.

Row | SMILES | Growth Rate (HEK-293T; 0 h, replicate number 1) | Growth Rate (HEK-293T; 0 h, replicate number 2) | Growth Rate (HEK-293T; 18 h, replicate number 2) | Growth Rate (HEK-293T; 24 h, replicate number 2) | Growth Rate (Fibroblast; 0 h, replicate number 2) | Growth Rate (Fibroblast; 6 h, replicate number 2) | Growth Rate (Fibroblast; 12 h, replicate number 1) | Growth Rate (Fibroblast; 12 h, replicate number 2) | Growth Rate (Fibroblast; 18 h, replicate number 1) | Growth Rate (Fibroblast; 18 h, replicate number 2) | Growth Rate (Fibroblast; 24 h, replicate number 1) | Growth Rate (U2OS; 0 h, replicate number 1) | Growth Rate (U2OS; 6 h, replicate number 2) | Growth Rate (Fibroblast; 0 h, replicate number 1) | Growth Rate (U2OS; 12 h, replicate number 2) | Growth Rate (U2OS; 18 h, replicate number 2) | Growth Rate (U2OS; 24 h, replicate number 2) | Growth Rate (HEK-293T; 6 h, replicate number 2) | Growth Rate (HEK-293T; 12 h, replicate number 2) | Growth Rate (U2OS; 24 h, replicate number 1) | further results
1 | COc1ccccc1S(=O)(=O)Nc1ccc2c(c1)CN(C)C(=O)N2 | 0.51 | -0.37 | 0.98 | 0.9 | 0.57 | -0.15 | 0.4 | 0.42 | 0.37 | 0.7 | 0.79 | -0.66 | 0.5 |  |  |  |  |  |  |  | Growth Rate (Fibroblast; 6 h, replicate number 1): 0.3; Growth Rate (U2OS; 0 h, replicate number 2): -0.75; Growth Rate (U2OS; 6 h, replicate number 1): 0.81; Growth Rate (U2OS; 12 h, replicate number 1): 0.83
2 | CNc1ncc2cc(-c3ccc(-c4cccc(C)n4)cc3Cl)c(=O)n(C[C@H]3OC[C@H](N)CO3)c2n1 | -0.96 |  |  |  | -0.44 | 0.69 | 0.36 | 0.19 | 0.37 | 0.14 | 0.41 | 0.31 | 0.37 | 0.26 | 0.83 | 0.77 | 0.53 |  |  |  | Growth Rate (Fibroblast; 24 h, replicate number 2): 0.16
3 | CN1CCN(c2ccc(-n3cc(-c4ccncc4OCC4CCNCC4)cn3)cc2)CC1 | -0.6 |  | 0.13 | 0.07 | 0.21 | 0.33 | 0.81 | 0.22 | 0.68 | 0.19 | 0.62 |  | 0.51 | 0.3 | 0.4 | 0.31 | 0.16 | -0.17 | 0.09 | 0.53 | Growth Rate (HEK-293T; 6 h, replicate number 1): -0.15; Growth Rate (HEK-293T; 12 h, replicate number 1): 0.02; Growth Rate (HEK-293T; 18 h, replicate number 1): 0.14; Growth Rate (HEK-293T; 24 h, replicate number 1): 0.11; Growth Rate (Fibroblast; 6 h, replicate number 1): 0.93; Growth Rate (Fibroblast; 24 h, replicate number 2): 0.28; Growth Rate (U2OS; 0 h, replicate number 2): 0.97; Growth Rate (U2OS; 12 h, replicate number 1): 0.92; Growth Rate (U2OS; 18 h, replicate number 1): 0.69
4 | CCc1c(-c2ccc3[nH]ncc3c2)cnc(N)c1-c1ccc(O)cc1 | -0.12 |  | 0.91 | 0.88 | -0.31 |  |  |  |  |  |  |  | 0.84 |  |  |  |  | 0.91 | 0.9 | 0.92 | Growth Rate (HEK-293T; 6 h, replicate number 1): 0.85; Growth Rate (HEK-293T; 12 h, replicate number 1): 0.8; Growth Rate (HEK-293T; 24 h, replicate number 1): 0.99; Growth Rate (Fibroblast; 6 h, replicate number 1): 0.91; Growth Rate (U2OS; 0 h, replicate number 2): -0.93
5 | NC(=O)C1CCCc2c1[nH]c1ccc(Cl)cc21 (configuration not stated) | 0.75 | -0.98 | 0.66 | 0.79 | 0.51 |  |  | 0.9 |  |  |  | 0.85 |  |  |  |  | 0.96 | 0.22 | 0.53 | 1 | Growth Rate (Fibroblast; 24 h, replicate number 2): 0.88; Growth Rate (U2OS; 0 h, replicate number 2): 0.68; Growth Rate (U2OS; 6 h, replicate number 1): 0.7; Growth Rate (U2OS; 12 h, replicate number 1): 1; Growth Rate (U2OS; 18 h, replicate number 1): 0.88
6 | Cc1ncsc1-c1ccc(CNC(=O)[C@@H]2C[C@@H](O)CN2C(=O)[C@@H](NC(=O)CCCCNC(=O)c2ccc(-c3ccc(N4CCN(C)CC4)c(NC(=O)c4c[nH]c(=O)cc4C(F)(F)F)c3)cc2)C(C)(C)C)cc1 | -0.12 |  | 0.86 | 0.72 | 0.64 |  | 0.65 | 0.74 | 0.33 | 0.86 | 0.46 | 0.71 | 0.89 | 0.97 | 0.84 | 0.79 | 0.71 | 0.8 |  | 0.61 | Growth Rate (Fibroblast; 6 h, replicate number 1): 0.29; Growth Rate (U2OS; 6 h, replicate number 1): 0.86; Growth Rate (U2OS; 18 h, replicate number 1): 0.96
7 | O=C(CNCc1cc2ccccc2[nH]1)N[C@H]1CC[C@@H](c2nc3ccccc3[nH]2)CC1 | -0.1 | -0.87 | 0.77 | 0.89 | 0.8 | 0.7 | 0.79 | 0.69 | 0.78 |  | 0.78 | -0.05 | 1 |  |  |  |  | 0.27 | 0.76 | 0.8 | Growth Rate (Fibroblast; 6 h, replicate number 1): 0.9; Growth Rate (U2OS; 6 h, replicate number 1): 0.65; Growth Rate (U2OS; 12 h, replicate number 1): 0.55; Growth Rate (U2OS; 18 h, replicate number 1): 0.82
8 | COc1cc(-c2cncc(-c3ccc(N4CCN(C(C)C)CC4)cc3)c2C)cc(F)c1C(=O)N1CCCC1 | -0.5 | -0.2 |  | 0.92 | 0.49 | -0.22 |  | 0.11 | 0.73 | 0.27 | 0.76 |  |  | -0.08 | 1 | 0.99 | 0.89 |  |  |  | Growth Rate (Fibroblast; 24 h, replicate number 2): 0.4
9 | CC(=O)N1CCN([C@H]2CCC[C@@H](NC(=O)c3cc4c(F)ccc(C)c4[nH]3)C2)CC1.O=C(O)C(F)(F)F | 0.94 | -0.6 | 0.68 | 0.48 | -0.08 | 0.42 |  | 0.88 |  | 0.88 |  | 0.28 | 0.95 | -0.07 | 0.96 | 0.94 | 0.88 | 0.46 | 0.4 | 0.99 | Growth Rate (HEK-293T; 6 h, replicate number 1): 0.9; Growth Rate (HEK-293T; 12 h, replicate number 1): 0.75; Growth Rate (Fibroblast; 24 h, replicate number 2): 0.9; Growth Rate (U2OS; 0 h, replicate number 2): 0.78; Growth Rate (U2OS; 12 h, replicate number 1): 0.84
10 | CC(=O)O.Cc1cc2c(ncn2C2(C)CN(C(=O)c3ccn(CC4CCN([C@H]5C=CCCCC5)CC4)c3)C2)c(N)n1 | -0.66 |  |  |  | 0.45 | 0.25 | 0.9 | 0.83 | 0.86 | 0.98 |  | 0.51 |  |  |  |  |  |  |  | 0.75 | Growth Rate (U2OS; 6 h, replicate number 1): 0.96
11 | CN1CCc2cc(Nc3ncc(C(F)(F)F)c(NCc4cc[nH]n4)n3)ccc2C1 | -0.94 |  | 0.47 | 0.14 | -0.64 |  |  |  |  |  |  |  | 0.87 | -0.24 | 0.56 | 0.37 | 0.22 |  | 0.73 | 0.58 | Growth Rate (HEK-293T; 18 h, replicate number 1): 0.42; Growth Rate (HEK-293T; 24 h, replicate number 1): 0.29; Growth Rate (U2OS; 18 h, replicate number 1): 0.84
